Measured values taken from patent publication EP0343643B1, “Arylmethylenyl derivatives of thiazolidnones, imidazolidinones and oxazolidinones useful as antiallergy agents and antiinflamatory agents” (WARNER-LAMBERT COMPANY, priority 1988, dated 1989).

Experiments:
cellular 5-lipoxygenase = target: T1, cellular 5-lipoxygenase (Rattus norvegicus, UniProt P12527); assay: ARBL whole cell 5-lipoxygenase assay (LTB₄ formation in RBL-1 cells); assay type: cell-based; settings: A23187 stimulated, LTB₄ by RIA, read-out: ARBL Percent inhibition of cellular 5-lipoxygenase at 16 µM
T1 construct: ARBL/ARBC Whole Cell 5-Lipoxygenase and Cyclooxygenase Assays; host or cells: RBL-1 (rat basophilic leukemia) cells
T1 sequence (P12527 1-673): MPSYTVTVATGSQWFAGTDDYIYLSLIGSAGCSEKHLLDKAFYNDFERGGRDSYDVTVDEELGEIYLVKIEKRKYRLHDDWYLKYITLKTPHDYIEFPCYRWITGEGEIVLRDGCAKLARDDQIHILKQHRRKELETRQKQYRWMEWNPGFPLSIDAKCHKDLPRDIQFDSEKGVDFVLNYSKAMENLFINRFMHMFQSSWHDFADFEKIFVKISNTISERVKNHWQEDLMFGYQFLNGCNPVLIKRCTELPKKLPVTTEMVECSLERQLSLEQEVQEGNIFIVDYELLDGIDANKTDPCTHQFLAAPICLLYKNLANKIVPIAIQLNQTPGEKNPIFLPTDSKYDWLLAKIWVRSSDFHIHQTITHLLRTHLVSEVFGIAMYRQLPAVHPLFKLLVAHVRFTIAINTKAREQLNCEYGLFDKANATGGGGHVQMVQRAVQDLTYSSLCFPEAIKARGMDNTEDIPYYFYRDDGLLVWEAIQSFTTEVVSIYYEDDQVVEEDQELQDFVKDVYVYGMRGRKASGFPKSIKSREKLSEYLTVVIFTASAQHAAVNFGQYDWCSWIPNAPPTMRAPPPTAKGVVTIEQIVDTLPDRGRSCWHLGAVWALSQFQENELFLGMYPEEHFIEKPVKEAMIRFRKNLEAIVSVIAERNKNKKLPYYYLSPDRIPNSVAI
Protocol: (§1) ARBL/ARBC Whole Cell 5-Lipoxygenase and Cyclooxygenase Assays The rat basophilic Leukemia cell line (RBL-1) was obtained from the American Type Culture Collection (Rockville, MD). Radioimmunoassay (RIA) kits of LTB₄ and PGF2α were obtained from Amersham (Arlington Heights, IL) and Seragen (Boston, MA), respectively. RBL-1 cells are grown in suspension culture in Eagle's minimum essential medium supplemented with 12% fetal bovine serum at 37°C in an incubator supplied with air-5% carbon dioxide. Cells are harvested by centrifugation. They are washed with cold phosphate buffered saline pH 7.4 (PBS; NaCl, 7.1 g; Na₂HPO₄, 1.15 g; KH₂PO₄, 0.2 g; and KCl, 0.2 g/l). Cells are finally suspended in PBS containing 1.0 mM calcium at a density of 2 x 10⁶ cells/ml. […] Calcium ionophore A23187 (5 µM) is added and cells are incubated for seven minutes at 37°C. The reaction is stopped by chilling the tubes on ice for ten minutes. Cells are separated by centrifugation and the supernatant is stored at -20°. Aliquots (100 µl) are analyzed for LTB₄ and PGF2α using radioimmunoassay kits as provided by the supplier. Table 1 contains biochemical data obtained from this whole cell assay as IC₅₀s which are calculated as the amount of test compound causing 50% inhibition of LTB₄ or PGF2α formation.

[1] = system: carrageenan footpad edema; assay: Carrageenan-induced rat foot paw edema-2 (CFE-2) assay; assay type: in vivo; settings: dosed one hour before carrageenan, edema measured five hours after
Protocol: Carrageenan-Induced Rat Foot Paw Edema-2 (CEF-2) Assay: Protocol
Carrageenan solution (1% w/v) is prepared by dissolving 100 mg carrageenan (Marine Colloidal Div., Springfield, NJ) in 10 ml of sterile saline (0.9%) solution (Travenol). The solution is vortexed for 30 to 45 minutes. Animals are dosed with compound one hour before carrageenan challenge. Foot paw edema is induced by injecting 0.10 ml of the 1% carrageenan subcutaneously into the plantar portion of the right hind paw of each rat under light anesthesia. Initial foot paw volume is measured immediately following carrageenan challenge using mercury plethysmography (Buxco Electronics). Edemia is measured five hours after carrageenan. The difference between the five-hour and the initial paw volume is expressed as delta edema. The delta edema for each test group of animals is used to calculate the percent inhibition of edema achieved by the compound at the test dose compared with the vehicle control group. The ID₄₀ (the dose at which swelling is inhibited by 40%) is calculated by probit analysis for the dose at which 40 percent inhibition occurs.

[2] = system: cellular 5-cyclooxygenase; assay: ARBC whole cell cyclooxygenase assay (PGF2α formation in RBL-1 cells); assay type: cell-based, rat; parameters: key: N inactive at screening concentration; settings: A23187 stimulated, PGF2α by RIA
Protocol: as §1

human basophils = assay: Histamine release from human basophils (HHB), anti-IgE challenge; assay type: cell-based; parameters: key to HHB % Inhibition of Histamine Release at 33 µM: *: Indicates not active at 33 µM; settings: 33 µM drug, human basophils challenged with anti-IgE
From the text: HISTAMINE RELEASE FROM HUMAN BASOPHILS (hereinafter HHB)
The HHB assay quantitates active histamine release, and its inhibition by drugs, from basophils of human blood. Thus, the assay provides evaluation of the compounds of formula I for treating the conditions or diseases as is the present invention. As described herein the assay includes modifications of the method described by R. P. Siraganian in "An Automated Continuous-Flow System for the Extraction and Fluorometric Analysis of Histamine", Anal. Biochem., 57, 383-394 (1974).
Blood is drawn from allergic donors (chosen on the basis of adequate histamine release induced by a challenge), using standard venipuncture methods, into Vacutainers with EDTA in water as anticoagulant. The blood samples are placed briefly on a rotary mixer. The blood is mixed with Hespan (hydroxy ethyl starch, 0.5 ml per 1.0 ml of blood), the tube inverted several times to mix and then left undisturbed at room temperature until a sharp separation is observed between the settled red cells and the leukocyte and platelet-rich plasma. This usually occurs within 35-45 minutes.
The plasma fraction is removed and centrifuged for 12 minutes at 4°C at 1050 RPM (100 Xg). The platelets remain in the plasma and are discarded. The pelleted leukocytes are shaken gently to disrupt the cell button and washed twice with HA buffer containing 0.005 M EDTA and resuspended in HACM buffer to approximately one-quarter the original blood volume. A sample is prepared for Hematology, where a total white blood cell and platelet count is done using a Coulter Counter.
Aliquots (0.1 ml) of cells are added to triplicate assay tubes containing 0.4 ml of either 6% perchloric acid (for total histamine content), vehicle control (for spontaneous release), or drug. The tubes are incubated at room temperature for 8 minutes, and then placed in a 37°C water bath for 2 more minutes. Buffer or challenge agents (at 37°C) are added to the tubes and they are incubated for an additional 45 minutes at 37°C in a shaking water bath. The tubes are then spun at 2000 RPM (1200 g) for 3 minutes to pellet the cells and the supernatants are removed and assayed for histamine by the fluorometric method.
A 300 µM stock solution of each test compound is prepared in distilled water, using 0.5 ml DMSO/100 ml and/or 0.2 ml of 1N NaOH or HCl and/or heat to aid in dissolution. Five ml of the stock solution is diluted (1:2) with 5 ml of two times concentrated HACM buffer to yield the stock working concentration of 150 µM. When added to the cells and stimulus, a final test concentration of 100 µM drug results. Further dilutions are made with HACM buffer for 33, 10, 3.3, 1.0 µM, etc.
Short ragweed and house dust extracts (Greer Laboratories, Inc.) are supplied as aqueous extracts in stock concentrations of 40,000 and 10,000 protein nitrogen units per milliliter (PNU/ml), respectively. Aqueous solutions of anti-IgE antisera (rabbit-raised antibody) are purchased from Dako via Accurate Chemicals. The aqueous solutions of ragweed, house dust, and anti-IgE are diluted 1:2 with two times concentrated HACM and then further diluted with HACM to yield final stock concentrations of 6000 PNU/ml for ragweed and house dust and 1:50 dilution for the anti-IgE antisera. Further dilutions for working solutions are made in HACM buffer. All stock and working solutions are stored at 4°C. Working solutions comprise 1/6 of the final volume in the cell reaction, therefore, working solutions of challenge agents are made up six times the required final concentration.
In each experiment, cells are challenged according to the previously determined sensitivity of that donor to the particular challenge agent. Short ragweed and house dust concentrations are expressed in PNU/ml, and anti-IgE antisera is expressed as dilutions, e.g., IE-5 (1:100,000), 3E-5 (1:30,000), and IE-4 (1:10,000).
The total histamine concentration in the "total" (acid-treated) samples must be 15 ng/ml to be acceptable. […]

[3] = 2-thioxo-4-oxazolidinone series

## CC(C)(C)c1cc(C=C2OC(=O)NC2=O)cc(C(C)(C)C)c1O [Example 15]
Cellular 5-lipoxygenase
  inhibition at 16 µM: 95%
[1]; dose 1 mg/kg
  CFE Percent inhibition of carrageenan footpad edema (CFE) test: 18.5 (1) %
[1]; dose 3 mg/kg
  CFE Percent inhibition of carrageenan footpad edema (CFE) test: 23.5 (3) %
[1]; dose 10 mg/kg
  CFE Percent inhibition of carrageenan footpad edema (CFE) test: 36.8 (10) %
[1]; dose 30 mg/kg
  CFE Percent inhibition of carrageenan footpad edema (CFE) test: 39.4 (30) %
[2]
  ARBC Percent inhibition of cellular 5-cyclooxygenase at 16 µM: 89%

## COc1cc(C=C2OC(=S)NC2=O)ccc1O [Example 4, 5-[(4-Hydroxy-3-methoxyphenyl)methylene]-2-thioxo-4-oxazolidinone]
Human basophils; [3]
  inhibition at 33 µM: 77%

## COc1cc(C=C2OC(=S)NC2=O)cc(Br)c1O [Example 8, 5-[(3-Bromo-4-hydroxy-5-methoxyphenyl)methylene]-2-thioxo-4-oxazolidinone]
Human basophils; [3]
  HHB % Inhibition of Histamine Release at 33 µM: *

## COc1cc(C=C2OC(=S)NC2=O)cc(OC)c1OC [Example 10, 2-Thioxo-5-[(3,4,5-trimethoxyphenyl)methylene]-4-oxazolidinone]
Human basophils; [3]
  inhibition at 33 µM: 76%

## COc1cc(C=C2OC(=S)NC2=O)cc(OC)c1O [Example 6, 5-[(4-Hydroxy-3,5-dimethoxyphenyl)methylene]-2-thioxo-4-oxazolidinone]
Human basophils; [3]
  inhibition at 33 µM: 89%

## COc1cc(C=C2SC(=O)NC2=O)cc(OC)c1O [Example 1, 5-[(4-Hydroxy-3,5-dimethoxyphenyl)methylene]-2,4-thiazolidinedione]
Human basophils; thiazolidinedione series
  inhibition at 33 µM: 60%

## CC(C)(C)c1cc(C=C2OC(=S)NC2=O)cc(C(C)(C)C)c1O [Example 14]
Cellular 5-lipoxygenase
  inhibition at 16 µM: 92%
[1]; dose 1 mg/kg
  CFE Percent inhibition of carrageenan footpad edema (CFE) test: 44.1 (1) %
[1]; dose 3 mg/kg
  CFE Percent inhibition of carrageenan footpad edema (CFE) test: 41.1 (3) %
[1]; dose 10 mg/kg
  CFE Percent inhibition of carrageenan footpad edema (CFE) test: 32.1 (10) %
[1]; dose 30 mg/kg
  CFE Percent inhibition of carrageenan footpad edema (CFE) test: 40.4 (30) %
[2]
  ARBC Percent inhibition of cellular 5-cyclooxygenase at 16 µM: 86%

## COc1cc(C=C2SC(=O)NC2=O)ccc1O [Example 3]
Human basophils; thiazolidinedione series
  inhibition at 33 µM: 81%

## COc1cc(OC)c(OC)cc1C=C1OC(=S)NC1=O [Example 9, 2-Thioxo-5-[(2,4,5-trimethoxyphenyl)methylene]-4-oxazolidinone]
Human basophils; [3]
  HHB % Inhibition of Histamine Release at 33 µM: *

## COc1ccc(C=C2OC(=S)NC2=O)cc1OC [Example 5, 5-[(3,4-Dimethoxyphenyl)methylene]-2-thioxo-4-oxazolidinone]
Human basophils; [3]
  inhibition at 33 µM: 43%

## CC(C)(C)c1cc(C=C2SC(=O)NC2=O)cc(C(C)(C)C)c1O [Example 2, 5-[[3,5-Bis(1,1-dimethylethyl)-4-hydroxyphenyl]methylene]-2,4-thiazolidinedione]
Human basophils; thiazolidinedione series
  inhibition at 33 µM: 49%
Cellular 5-lipoxygenase
  inhibition at 16 µM: 100%
[1]; dose 1 mg/kg
  CFE Percent inhibition of carrageenan footpad edema (CFE) test: 31.8 (1) %
[1]; dose 3 mg/kg
  CFE Percent inhibition of carrageenan footpad edema (CFE) test: 39.8 (3) %
[1]; dose 10 mg/kg
  CFE Percent inhibition of carrageenan footpad edema (CFE) test: 53.7 (10) %
[1]; dose 30 mg/kg
  CFE Percent inhibition of carrageenan footpad edema (CFE) test: 58.8 (30) %
[2]
  ARBC Percent inhibition of cellular 5-cyclooxygenase at 16 µM: 95%

## O=C1NC(=S)OC1=Cc1ccc(O)c(Br)c1 [Example 13, 5-[(3-Bromo-4-hydroxyphenyl)methylene]-2-thioxo-4-oxazolidinone]
Human basophils; [3]
  inhibition at 33 µM: 66%

## COc1cc(C=C2OC(=O)NC2=O)cc(OC)c1O [Example 16, 5-[(4-Hydroxy-3,5-dimethoxyphenyl)methylene]-2,4-oxazolidinedione]
Cellular 5-lipoxygenase
  inhibition at 16 µM: 67%
[2]
  ARBC Percent inhibition of cellular 5-cyclooxygenase at 16 µM: N^(4)
